According to PubChem BioAssay AID1996:
≈ marks a conversion by molar mass, not a printed value.

conditions: buffer; pH 7.4; 200.0 µM

Compound	solubility kinetic [µg/mL]
COc1cc2sc(NC(=O)c3ccco3)nc2cc1Cl	< 0.3
O=C(O)c1ccc2cc(-c3ccccc3)[nH]c2c1	31.2 (≈ 132 µM)
CCOc1ccc2[nH]c3c(NCCO)ncnc3c2c1	> 40.8
CC(=O)Nc1cccc(OCC(=O)NCCC2=CCCCC2)c1	> 47.5
COC(=O)c1cccn(CC(=O)c2ccc(Cl)cc2)c1=O	> 45.9
COc1ccccc1C(=O)NCCC(=O)Nc1cccc(C)n1	> 47
CCc1cccc(C)c1NC(=O)CC(C)(C)CC(=O)O	> 41.6
CC(NC(=O)COC(=O)C1CCCCC1)c1ccccc1 (configuration not stated)	> 43.4
OCCC1CN(CC2CCCCC2)CCN1CC1CCCCC1 (configuration not stated)	> 48.4
N[C@H](CSCc1ccccc1)C(=O)Nc1ccc([N+](=O)[O-])cc1	36.3 (≈ 110 µM)
COc1ccc(NC(=O)c2cnc(SC)nc2C)c(OC)c1	> 47.9
CCC(C)c1ccc(NC(=O)N2CCOCC2)cc1 (configuration not stated)	37.4 (≈ 143 µM)
CN(C1CCS(=O)(=O)C1)S(=O)(=O)c1ccc2ccccc2c1 (configuration not stated)	9.2 (≈ 27.1 µM)
O=C(CN1C(=O)NC2(CCCCCC2)C1=O)N1CCCCC1	> 46.1
CCCOc1ccc(NC(=O)c2cc3cc(C)ccc3[nH]2)cc1	< 0.3
O=C(COC(=O)c1cc(S(=O)(=O)N2CCOCC2)ccc1F)NC1CC1	55.1 (≈ 143 µM)
O=Cc1c(NCc2ccccc2Cl)c2ccccc2[nH]c1=O	17.7 (≈ 56.6 µM)
S=C(NCc1ccco1)N1CCN(c2ccccn2)CC1	42.5 (≈ 141 µM)
CCCCOc1ccc(C(=O)N=c2sccn2C)cc1OC	35.7 (≈ 111 µM)
COc1cc(/C=C/C(=O)O)cc(S(=O)(=O)Nc2cc(C(F)(F)F)ccc2N2CCOCC2)c1OC	> 77.5
Cc1ccc(-c2cc(C(=O)Nc3cc(C)ccc3O)no2)cc1	< 0.3
Cc1ccc(S(=O)(=O)NC2CC2)cc1	> 31.7

Compound	solubility kinetic [µg/mL]
COc1cccc(C(C)NC(=O)Cc2cccs2)c1 (configuration not stated)	> 41.3
O=C(COc1ccccc1Cl)Nc1ccc2[nH]c(=O)[nH]c2c1	2 (≈ 6.29 µM)
NC(=O)C1CCCN(C(=O)c2ccc3c(c2)NC(=O)CS3)C1 (configuration not stated)	> 47.9
CC1=C(C(=O)OC2CCCCC2)C(c2ccc(F)cc2)NC(=O)N1 (configuration not stated)	31.2 (≈ 93.9 µM)
COCCOc1ccc(C(F)(F)F)cc1N	31.9 (≈ 136 µM)
O=C(NCC(c1ccco1)N1CCOCC1)c1ccccc1 (configuration not stated)	> 45.1
Cc1ccc(C(=O)CCC(=O)Nc2ccc(C)cn2)cc1	3.4 (≈ 12 µM)
Cc1ccc(NC(=O)c2cc(F)c(F)cc2Cl)nc1	12.8 (≈ 45.3 µM)
Cn1cc(C(=O)NC2CC2)c2ccccc21	31.9 (≈ 149 µM)
CC(=O)c1cnc(-c2cccc(Cl)c2)s1	1.3 (≈ 5.47 µM)
O=C(/C=C/c1cccc(F)c1)c1ccc(N2CCOCC2)cc1	5.8 (≈ 18.6 µM)
CC(C)c1ccc(NC(=O)NCc2ccccn2)cc1	> 40.4
Cc1cccc(C)c1NC(=O)C(=O)c1cn(C)c2ccccc12	< 0.3
CCCOc1ncnc2c1[nH]c1ccc(C)cc12	0.9 (≈ 3.73 µM)
CCN(CC(=O)NCc1cccs1)C(=O)c1cccc(S(=O)(=O)N2CC(C)OC(C)C2)c1 (configuration not stated)	> 71.9
Cc1nc(SC(C)C(=O)NC2CCCCC2C)c2c(C)c(C)sc2n1 (configuration not stated)	< 0.3
CCc1ccc(OCCOC(=O)Nc2ccccc2)cc1	< 0.6
COc1ccc(CN(C)C(=O)c2ccc3ccccc3n2)cc1F	> 48.7
CC1CCN(C(=O)CC#N)CC1	> 24.9
Cc1ccc(NC(=O)Cc2c(O)c3ccccc3[nH]c2=O)c(C)c1	23 (≈ 71.3 µM)
Cc1nc(/C(N)=N/OC(=O)Cc2ccccc2)no1	24.4 (≈ 93.8 µM)
Cc1oc(-c2ccccc2)cc1C(=O)NC1CCN(Cc2ccccc2)CC1	< 0.4

Compound	solubility kinetic [µg/mL]
Cc1ccc(OCC(=O)NCc2ccco2)c([N+](=O)[O-])n1	37.3 (≈ 128 µM)
CC(C)CCN(C(=O)c1ccccn1)c1c(N)n(Cc2ccccc2)c(=O)[nH]c1=O	56.9 (≈ 140 µM)
Cc1ccc(-n2c(=O)[nH]c3ncccc3c2=O)cc1	6.9 (≈ 27.2 µM)
COc1ccc(C(O)Cn2cc([N+](=O)[O-])nc2C)cc1 (configuration not stated)	39 (≈ 141 µM)
CCOC(=O)C(=CNc1nc2ccc(C(=O)OCC)cc2s1)C(=O)OCC	< 0.4
CNC(=O)COC(=O)/C=C/c1nc2ccccc2s1	> 41.4
Cc1ccc(C(=O)Nc2ccc(N3CCN(C)CC3)nc2)cc1	> 46.6
O=C(/C=C/c1cccs1)NC1CCCC1	> 33.2
CCN(CC)c1cc(Cl)nc(N)n1	25.9 (≈ 129 µM)
Cc1cc(C)nc(Nc2ccc(F)cc2)n1	> 32.6
O=C(O)CN1C(=O)C(=O)N(Cc2ccccc2F)C1=O	> 42
COc1ccccc1C(=O)NC(=O)COC(=O)C1CCC1	> 43.7
O=C(Nc1cccnc1Cl)c1cccc(F)c1	36.1 (≈ 144 µM)
O=C(CN1C(=O)CCSc2ccccc21)NC1CCCCC1	43.3 (≈ 136 µM)
O=C(O)C(=O)O.c1ccc(OCCN2CCOCC2)cc1	> 44.6
CSc1nsc(SCC(=O)Nc2cccc(C(=O)O)c2)n1	> 51.2
Cn1cc(/C=C2\C(=O)NC(=O)N(c3ccccc3)C2=O)c2ccccc21	1.6 (≈ 4.63 µM)
CC(CN1CCN(Cc2ccccc2)CC1)c1ccccc1.O=C(O)C(=O)O (configuration not stated)	7.2
COc1ccc(NC(=O)c2ccccc2-c2ccccc2C(=O)O)cc1	> 52.1
CC(C)(C)CC(=O)NC(=S)NCc1ccccc1	1.7 (≈ 6.43 µM)
Clc1cccc(CN2CCCCCC2)c1	14.3 (≈ 63.9 µM)
O=C(Nc1ccc(F)cc1F)c1ccccc1NC(=O)C1CC=CCC1C(=O)O (configuration not stated)	59.7 (≈ 149 µM)

Compound	solubility kinetic [µg/mL]
Cc1cc(C)n2nc(SCC(=O)Nc3ccccc3F)nc2n1	> 49.7
Cc1cc2ccccc2cc1CN1CCCCC1	9.6 (≈ 40.1 µM)
N/C(=N\OC(=O)C12CC3CC(CC(C3)C1)C2)c1ccncc1	17 (≈ 56.8 µM)
O=C(Nc1cc(Cl)c(Cl)cc1Cl)c1cccnc1	6.1 (≈ 20.2 µM)
Nc1cc(C(=O)OCC(=O)NCCC2=CCCCC2)ccc1Cl	9.4 (≈ 27.9 µM)
Cc1c(C=Nc2ccc(S(=O)(=O)N(C)C)cc2)c(O)[nH]c(=O)c1C#N	24.7 (≈ 68.5 µM)
CC(=O)Nc1ccc(Sc2ccccc2C(=O)O)c(C(=O)O)c1	42.3 (≈ 128 µM)
COc1cc(N2CCCC2)c(OC)cc1C=O	> 35.3
CCOC(=O)C(C(=O)N(C)Cc1ccccc1)C1CCCCC1 (configuration not stated)	41.8 (≈ 132 µM)
COc1ccc(C(=O)NCC2CCCCC2)cc1S(=O)(=O)N1CCOCC1	> 59.5
CC(C(=O)Nc1ccccc1)N(C)CCOc1ccccc1 (configuration not stated)	43.7 (≈ 146 µM)
CCOC(=O)Cc1csc(NC(=O)c2c(C)noc2C)n1	> 46.4
O=C(CCn1c(=O)oc2ccccc21)NCCC1=CCCCC1	> 47.2
O=C(c1cc2c(s1)-c1ccccc1S(=O)(=O)C2)N1CCCC1	47.6 (≈ 143 µM)
CC(C)c1ccc(OCC(=O)Nc2ccc3oc(=O)ccc3c2)cc1	< 0.7
Cc1ccc(SCC(=O)NC2CC3CCC(C2)N3C)cc1 (configuration not stated)	45.1 (≈ 148 µM)
O=C(Cc1ccccc1)Nc1ccc(NC(=O)c2ccco2)cc1	4 (≈ 12.5 µM)
S=C(NC1CC1)N1CCc2ccccc2C1	> 34.9
O=C(CN1C(=O)NC2(CCc3ccccc32)C1=O)c1ccccc1 (configuration not stated)	40.1 (≈ 125 µM)
Cn1c(/C=C/c2cccc(Br)c2)nc2ccccc2c1=O	0.7 (≈ 2.05 µM)
CCN(Cc1ccncc1)C(=O)c1ccc(C)o1	> 36.6
